Assays:
keratinocytes = conditions: just-subconfluent keratinocyte cultures, 60 minutes' incubation; BM165 mAb 50 µg/mL, 10-mM EDTA
Procedure: Cells were grown in Keratinocyte Growth Medium (KGM) containing 0.15 mM CaCl2 and subcultured according to the manufacturer's instructions (Clonetics). For most immunocytochemical experiments, first- or second-passage cells were grown in glass or plastic chamber slides (Lab-Tek) or on glass cover slips to approximately 80 percent confluency. For large-scale collection, spent-media cells were grown in 150-cm^2 tissue culture dishes and fed three times per week with 15 mL fresh media.
Keratinocytes were grown to near confluence and either fixed immediately (FIGS. 4B and 4D) or washed with PBS and incubated with BM165 mAb (50 µg/mL) followed by 5-nm gold-conjugated secondary antibody prior to fixation (FIGS. 4A and 4C).
To further pursue these observations, just-subconfluent keratinocyte cultures were separately incubated with purified BM165 mAb for 10 and 60 minutes. After incubation, the cultures were photographed (FIGS. 5A-F). Purified mAbs in PBS, PBS alone, or 10-mM EDTA were incubated with keratinocytes in parallel. Parallel cultures were also incubated with anti-type-VII monoclonal IgG in PBS for the corresponding same length of time.

O=C(O)CN(CCN(CC(=O)O)CC(=O)O)CC(=O)O [EDTA]
rounding and detachment of dermal fibroblasts (Dermal fibroblasts): rounded and detached
rounding and detachment of the keratinocytes (keratinocytes): extensive rounding and detachment

COc1cc2c(c(OC)c1OC)-c1ccc(OC)c(=O)cc1[C@@H](NC(C)=O)CC2 [colchicine]
secretion of kalinin into the medium (secretion of kalinin): inhibited

From patent EP0675728B1, “PRODUCTS AND METHODS FOR IMPROVING KE[…] TO THE DERMIS” (STATE OF OREGON BY AND THROUGH OREGON STATE BOARD OF HIGHER …, priority 1992, dated 1994)
